Data reported in patent US20250011289A1, “1H-BENZO[B]AZEPIN-2(3H)-ONE COMPOUNDS, COMPOSITIONS AND METHODS OF TREATING CANCER” (Chengdu Anticancer Bioscience, Ltd., priority 2021, published 2025).
Read-outs that look alike come from different tables or passages of the source.

Legend:
[1] = test system: RPE-Neo or RPE-MYC or RPE-MYC expressing an EGFP-Histone 2B fusion protein; assay: Phenotypic screening assay (arrest in mitosis or change in DNA content, IN-Cell Analyzer); assay type: cell-based; settings: compounds at 20 nM to 20 μM, analysed 24, 48 or 72 hours after initiation of treatment
Experimental: (§1) Screening was conducted as described before (Li et al. 2019). Briefly, RPE-Neo or RPE-MYC or RPE-MYC expressing an EGFP-Histone 2B fusion protein were passaged as batches of 96-well plates, 18-24 hours before exposure to the chemical compounds of the present disclosure at concentrations from 20 nM to 20 μM. At 24, 48 or 72 hours after initiation of treatment, cells were analyzed for either an arrest in mitosis or a change in DNA content by GE 1N-Cell Analyzer 2000. MTT assays of cellular proliferation were performed as previously described (Li et al. 2019).
(§2) As set forth in table 2 below, an values of greater than or equal to 1 nM and less than or equal to 1.0 μM is marked “A”; a value greater than 1.00 μM and less than or equal to 10.0 μM is marked “B”; a value greater than 10.0 μM and less than or equal to 30.0 μM is marked “C”; and a value greater than 30.0 μM and less than 1000 μM is marked “D.”

RPE-Neo or RPE-MYC cells = assay: MTT assay of cellular proliferation; assay type: cell-based; settings: compounds at 20 nM to 20 μM; read-out: Min. Effective conc. for Proliferative arrest (>50%)
Experimental: Human cancer cell lines were obtained from ATCC and cultured in DMEM (Gibco, Cleveland. TN, USA) supplemented with 5% fetal bovine serum (Gibco), penicillin (100 U/mL)-streptomycin (100 μg/mL) (Gibco, Cat. No. 15140-122), 2 mM L-glutamine (Gibco, 200 mM solution, Cat. No. 25030081), and 1 mM sodium pyruvate (Gibco, 100 mM solution, Cat. No. 11360070) at 37° C. in a humidified incubator that was maintained at 5% CO2.
as §1, §2

[2] = read-out: Min. Effective conc. for Along with Cell Death
[3] = read-out: Min. Effective conc. for Mitotic Arrest (>5%)
[4] = read-out: Min. Effective conc. for Polyploidy (≥5%)

Measured: minimal effective concentration

Cc1ccc(CN2C(=O)CC(c3nnc(C4CC4)o3)=C(Br)c3ccc(F)cc32)cc1F [Compound 20-7, 5-bromo-4-(5-cyclopropyl-1,3,4-oxadiazol-2-yl)-8-fluoro-1-(3-fluoro-4-methylbenzyl)-1,3-dihydro-2H-benzo[b]azepin-2-one]
0.001 to 1 µM: [1]; [2] | [1]; [3] | [1]; [4] | RPE-Neo or RPE-MYC cells

Cc1nnc(C2=C(Br)c3ccc(F)cc3N(Cc3ccc(C)c(F)c3)C(=O)C2)o1 [Compound 20-8, 5-bromo-8-fluoro-1-(3-fluoro-4-methylbenzyl)-4-(5-methyl-1,3,4-oxadiazol-2-yl)-1,3-dihydro-2H-benzo[b]azepin-2-one]
0.001 to 1 µM: [1]; [2] | [1]; [3] | [1]; [4] | RPE-Neo or RPE-MYC cells

Cc1ccc(CN2C(=O)CC(c3nnc(C4CC4)o3)=C(Br)c3ccc(Cl)cc32)cc1F [Compound 20-9, 5-bromo-8-chloro-4-(5-cyclopropyl-1,3,4-oxadiazol-2-yl)-1-(3-fluoro-4-methylbenzyl)-1,3-dihydro-2H-benzo[b]azepin-2-one]
0.001 to 1 µM: [1]; [2] | [1]; [3] | [1]; [4] | RPE-Neo or RPE-MYC cells

Cc1nnc(C2=C(Br)c3ccc(Cl)cc3N(Cc3ccc(C)c(F)c3)C(=O)C2)o1 [Compound 20-10, 5-bromo-8-chloro-1-(3-fluoro-4-methylbenzyl)-4-(5-methyl-1,3,4-oxadiazol-2-yl)-1,3-dihydro-2H-benzo[b]azepin-2-one]
0.001 to 1 µM: [1]; [2] | [1]; [3] | [1]; [4] | RPE-Neo or RPE-MYC cells

Cc1ccc(CN2C(=O)CC(c3nnc(C4CC4)o3)=C(Br)c3ccc(C#N)cc32)cc1F [Compound 20-11, 5-bromo-4-(5-cyclopropyl-1,3,4-oxadiazol-2-yl)-1-(3-fluoro-4-methylbenzyl)-2-oxo-2,3-dihydro-1H-benzo[b]azepine-8-carbonitrile]
0.001 to 1 µM: [1]; [2] | [1]; [3] | [1]; [4] | RPE-Neo or RPE-MYC cells

Cc1ccc2c(c1)N(Cc1ccc(C)c(F)c1)C(=O)CC(c1nnc(C3CC3)o1)=C2Br [Compound 20-12, 5-bromo-4-(5-cyclopropyl-1,3,4-oxadiazol-2-yl)-1-(3-fluoro-4-methylbenzyl)-8-methyl-1,3-dihydro-2H-benzo[b]azepin-2-one]
0.001 to 1 µM: [1]; [2] | [1]; [3] | [1]; [4] | RPE-Neo or RPE-MYC cells

Cc1ccc2c(c1)N(Cc1ccc(C)c(F)c1)C(=O)CC(c1nnc(C)o1)=C2Br [Compound 20-13, 5-bromo-1-(3-fluoro-4-methylbenzyl)-8-methyl-4-(5-methyl-1,3,4-oxadiazol-2-yl)-1,3-dihydro-2H-benzo[b]azepin-2-one]
0.001 to 1 µM: [1]; [2] | [1]; [3] | [1]; [4] | RPE-Neo or RPE-MYC cells

Cc1ccc(CN2C(=O)CC(c3nnc(C4CC4)o3)=C(Br)c3ccc(C(F)(F)F)cc32)cc1F [Compound 20-14, 5-bromo-4-(5-cyclopropyl-1,3,4-oxadiazol-2-yl)-1-(3-fluoro-4-methylbenzyl)-8-(trifluoromethyl)-1,3-dihydro-2H-benzo[b]azepin-2-one]
0.001 to 1 µM: [1]; [2] | [1]; [3] | [1]; [4] | RPE-Neo or RPE-MYC cells

Cc1ccc(CN2C(=O)CC(c3nnc(C4CC4)o3)=C(Br)c3cccc(F)c32)cc1F [Compound 20-15, 5-bromo-4-(5-cyclopropyl-1,3,4-oxadiazol-2-yl)-9-fluoro-1-(3-fluoro-4-methylbenzyl)-1,3-dihydro-2H-benzo[b]azepin-2-one]
0.001 to 1 µM: [1]; [2] | [1]; [3] | [1]; [4] | RPE-Neo or RPE-MYC cells

Cc1ccc(CN2C(=O)CC(c3nnc(C4CC4)o3)=C(Br)c3c(F)cccc32)cc1F [Compound 20-16, 5-bromo-4-(5-cyclopropyl-1,3,4-oxadiazol-2-yl)-6-fluoro-1-(3-fluoro-4-methylbenzyl)-1,3-dihydro-2H-benzo[b]azepin-2-one]
0.001 to 1 µM: [1]; [2] | [1]; [3] | [1]; [4] | RPE-Neo or RPE-MYC cells

Cc1ccc(CN2C(=O)CC(c3nnc(C4CC4)o3)=C(Br)c3cc(F)ccc32)cc1F [Compound 20-17, 5-bromo-4-(5-cyclopropyl-1,3,4-oxadiazol-2-yl)-7-fluoro-1-(3-fluoro-4-methylbenzyl)-1,3-dihydro-2H-benzo[b]azepin-2-one]
0.001 to 1 µM: [1]; [2] | [1]; [3] | [1]; [4] | RPE-Neo or RPE-MYC cells

Cc1ccc(CN2C(=O)CC(c3nnc(C4CC4)o3)=C(Br)c3cccc(C)c32)cc1F [Compound 20-18, 5-bromo-4-(5-cyclopropyl-1,3,4-oxadiazol-2-yl)-1-(3-fluoro-4-methylbenzyl)-9-methyl-1,3-dihydro-2H-benzo[b]azepin-2-one]
0.001 to 1 µM: [1]; [2] | [1]; [3] | [1]; [4] | RPE-Neo or RPE-MYC cells

C#Cc1ccc2c(c1)N(Cc1ccc(C)c(F)c1)C(=O)CC(c1nnc(C3CC3)o1)=C2Br [Compound 20-20, 5-bromo-4-(5-cyclopropyl-1,3,4-oxadiazol-2-yl)-8-ethynyl-1-(3-fluoro-4-methylbenzyl)-1,3-dihydro-2H-benzo[b]azepin-2-one]
0.001 to 1 µM: [1]; [2] | [1]; [3] | [1]; [4] | RPE-Neo or RPE-MYC cells

COc1ccc(CN2C(=O)CC(c3nnc(C4CC4)o3)=C(Br)c3ccccc32)cc1 [Compound 20-21, 5-bromo-4-(5-cyclopropyl-1,3,4-oxadiazol-2-yl)-1-(4-methoxybenzyl)-1,3-dihydro-2H-benzo[b]azepin-2-one]
0.001 to 1 µM: [1]; [2] | [1]; [3] | [1]; [4] | RPE-Neo or RPE-MYC cells

Cc1ccc(CN2C(=O)CC(c3nnc(C4CC4)o3)=C(Br)c3ccc(C(N)=O)cc32)cc1F [Compound 20-22, 5-bromo-4-(5-cyclopropyl-1,3,4-oxadiazol-2-yl)-1-(3-fluoro-4-methylbenzyl)-2-oxo-2,3-dihydro-1H-benzo[b]azepine-8-carboxamide]
0.001 to 1 µM: [1]; [2] | [1]; [3] | [1]; [4] | RPE-Neo or RPE-MYC cells

Cc1ccc(CN2C(=O)CC(c3nnc(C4CC4)o3)=C(Br)c3ccc(OCCCN4CCOCC4)cc32)cc1F [Compound 20-23, 5-bromo-4-(5-cyclopropyl-1,3,4-oxadiazol-2-yl)-1-(3-fluoro-4-methylbenzyl)-8-(3-morpholinopropoxy)-1,3-dihydro-2H-benzo[b]azepin-2-one]
0.001 to 1 µM: [1]; [2] | [1]; [3] | [1]; [4] | RPE-Neo or RPE-MYC cells

COc1ccc(CN2C(=O)CC(c3nnc(C4CC4)o3)=C(Br)c3ccccc32)cc1F [Compound 20-25, 5-bromo-4-(5-cyclopropyl-1,3,4-oxadiazol-2-yl)-1-(3-fluoro-4-methoxybenzyl)-1,3-dihydro-2H-benzo[b]azepin-2-one]
0.001 to 1 µM: [1]; [2] | [1]; [3] | [1]; [4] | RPE-Neo or RPE-MYC cells

[2H]C(c1ccc(C)c(F)c1)N1C(=O)CC(c2nnc(C3CC3)o2)=C(Br)c2ccccc21 (stereo not shown) [Compound 20-26, 5-bromo-4-(5-cyclopropyl-1,3,4-oxadiazol-2-yl)-1-((3-fluoro-4-methylphenyl)methyl-d)-1,3-dihydro-2H-benzo[b]azepin-2-one]
0.001 to 1 µM: [1]; [2] | [1]; [3] | [1]; [4] | RPE-Neo or RPE-MYC cells

[2H]C([2H])(c1ccc(C)c(F)c1)N1C(=O)CC(c2nnc(C3CC3)o2)=C(Br)c2ccccc21 [Compound 20-27, 5-bromo-4-(5-cyclopropyl-1,3,4-oxadiazol-2-yl)-1-((3-fluoro-4 methylphenyl)methyl-d2)-1,3-dihydro-2H-benzo[b]azepin-2-one]
0.001 to 1 µM: [1]; [2] | [1]; [3] | [1]; [4] | RPE-Neo or RPE-MYC cells
